According to patent publication US6548528B2, “Pesticidal pyrazoles and derivatives” (Rhone-Poulenc Agro, priority 1996, dated 2003):

Tested on: termites
Assay: Soil treatment at discrete locations around a house to be built, protection against termites (Example 1)
Type: in vivo
Details: for attack of termite observed: 1 year after building the house, 0.01 g/m^2 of soil at future corners and wall crossings, treated area 5 m per 10 m of perimeter
Description: In an area where termites are passing or traveling, plans for a house are made. The plans are that the house will have a rectangular shape of 15 m×10 m with 4 rooms at the lower level.
Compound (A) is actually put on the soil at a rate of 0.01 g/m^2 of the soil at the location of the future corners of the house and at the crossing of the walls corresponding to each room according to the following scheme: [drawing 2]
The treated area represents 5 m per 10 m of perimeter.

SMILES: N#Cc1nn(-c2c(Cl)cc(C(F)(F)F)cc2Cl)c(N)c1[S+]([O-])C(F)(F)F (stereo not drawn) [Compound (A), 5-amino 1-(2,6-dichloro 4-trifluoromethylphenyl) 4-trifluoromethylsulfinyl 3-cyanopyrazole]
- attack of termite observed: no attack of termite

SMILES: CCOP(=S)(OCC)Oc1nc(Cl)c(Cl)cc1Cl [chlorpyrifos]
- attack of termite observed: strong attack of termites
- holes in parts of the walls, % of the volume (one year after building the house, similar experiment to Example 1): more than 10%
